For data set [1], the system named is mice. Briefly: 4 plates test (suppressive conditioning), 25 mg/kg orally, increase in punished passages with respect to control. Particulars: Mus musculus, po, 1 h, male mice, 25 mg/kg single oral dose, 60 minutes before the test; read-out: % increase in the number of punished passages with respect to the control batch. It is filed as in vivo, Swiss male mice. An excerpt: The method is based on the attenuation or suppression of the anxiety state induced by electric shocks on movement of the animals (mice) into a special enclosure.
The anxiolytic effect is manifested by an increase in movements at doses not affecting motility.
For each dose, the groups are of 15 animals which have not undergone the test.
The apparatus was of the Apelex type.
It is composed of a parallelepipedic box of white plastic material, provided with a lid of transparent plexiglas, mobile by means of two hinges. The floor, which is rectangular, is constituted by four plates of conductive metal of which the distance between one another and the walls of the box is of 0.5 cm.
These plates are connected to an Apelex impulse generator. The potential difference when there is no impulse is, nil between two plates on a diagonal and is of 180 Volts between two adjacent plates. A trigger enables that a constant electrical current pulse be sent (of 0 to 2 milliamperes) for a selected time (from 0.1 to 5 seconds).
The operation is carried out in a silent area at constant temperature, the experimenter overlooking the box so that he can follow all the movements of the mice placed on one of the plates.
For each animal, the experiment is carried out according to the following modalities:
preliminary exploration of 15 seconds, without electric shock;
punished exploration (electric shock for each movement between two ajdacent plates) for 60 seconds.
The electric shocks have a duration of 0.5 seconds and an intensity of 0.6 milliampere.
The controls receive only carboxymethylcellulose.
The results are expressed as percentage of increase in the number of punished passages with respect to the control batch (increase percentage).

Data set [2] is described as follows: Acute toxicity (LD0, LD50, LD100). As to conditions: mouse, in vivo.
The test system of data set [3] is mice. Briefly: Acute toxicity (LD0, LD50, LD100). Particulars: for ratio between the effective dose and the toxicity: mouse, in vivo.
Data set [4] relates to mice. As to conditions: mouse, in vivo.

Consider 25 molecules from patent US4760062A, “Pharmaceutical compositions of N-heterocyclic benzenesulfonamides and their use” (DROPIC, Societe Civile de gestion de droits de Propriete …, priority 1983, dated 1988).

SMILES strings stand for the structures. Read-outs that look alike come from different tables or passages of the source. A value given as a limit tells only on which side of the number the result lay.

In the case of `O=S(=O)(c1cccc(C(F)(F)F)c1)N1CCN(CCCO)CC1` [Compound 1500], the change in vivo at 25 mg/kg with mice [1] amounted to 25%.
One may read the LD50 as the dose expected to kill half of the subjects tested. Low values mean a more toxic substance, high ones a less toxic substance. The molecule `COc1cc(OC)c(S(=O)(=O)N2CCN(c3ccc(F)cc3)CC2)cc1S(C)(=O)=O` [Compound 1298] showed an LD50 in data set [2] (ip) of more than 2000 mg/kg. Besides, in the data set with mice [3] (mice, route IP), the LD0 is > 2 000 mg/kg and the LD100 was > 2 000 mg/kg. Moreover, the “ratio between the effective dose and the toxicity” value in the data set with mice [4] is “satisfactory”.
As to `COc1ccc(Cl)cc1S(=O)(=O)N1CCN(Cc2ccccc2)CC1` [Compound 1245], in data set [2] (ip), the LD50 is more than 2000 mg/kg. Besides, in the data set with mice [3] (mice, route IP), the LD0 is > 2 000 mg/kg and the LD100 is recorded as > 2 000 mg/kg. The “ratio between the effective dose and the toxicity” value in the data set with mice [4] is given as “satisfactory”.
With `COc1ccc(Br)cc1S(=O)(=O)N1CCN(c2ccc(F)cc2)CC1` [Compound 1299], the change in vivo at 25 mg/kg in the data set on mice [1] stood at 28%.
Turning to `O=C(c1ccco1)N1CCN(S(=O)(=O)c2ccc(Cl)c(C(F)(F)F)c2)CC1` [Compound 1402], the LD0 in the data set with mice [3] (by oral route) is reported as > 2 000 mg/kg. The “ratio between the effective dose and the toxicity” value in the data set on mice [4] was “satisfactory”.
As for `O=S(=O)(c1cccc(C(F)(F)F)c1)N1CCN(CCO)CC1` [Compound 1505], in the data set on mice [1], the change in vivo at 25 mg/kg is 35%.
Consider `COc1cc([N+](=O)[O-])c(Cl)cc1S(=O)(=O)N1CCN(C)CC1` [Compound 1292], for which the LD50 in data set [2] (ip) was 650 mg/kg. In addition, in the data set on mice [3] (mice, route IP), the LD0 is on record as 400 mg/kg and the LD100 is 1 000 mg/kg. Further, the “ratio between the effective dose and the toxicity” value in the data set with mice [3] is “satisfactory”.
As for `O=C(N1CCN(S(=O)(=O)c2ccc(Cl)c(C(F)(F)F)c2)CC1)C12CC3CC(CC(C3)C1)C2` [Compound 1406], in the data set with mice [1], the change in vivo at 25 mg/kg worked out at 24%.
In the case of `COc1cc([N+](=O)[O-])c(Cl)cc1S(=O)(=O)N1CCN(CCO)CC1` [Compound 1290], the change in vivo at 25 mg/kg in the data set on mice [1] turned out to be 17%.
With `O=S(=O)(c1cc(C(F)(F)F)cc(C(F)(F)F)c1)N1CCCNCC1` [Compound 1408], the change in vivo at 25 mg/kg with mice [1] is 22%.
With `O=C(c1ccccc1)N1CCCN(S(=O)(=O)c2ccc(Cl)c(C(F)(F)F)c2)CC1` [Compound 1393], the LD0 in the data set with mice [3] (by oral route) is listed as > 2 000 mg/kg. In addition, the “ratio between the effective dose and the toxicity” value with mice [4] is “satisfactory”.
Turning to `COc1cc(N)c(Cl)cc1S(=O)(=O)N1CCN(C)CC1` [Compound 1427, 1'1-[(4-amino 5-chloro 2-methoxy)benzenesulfonyl]4-methyl piperazine], the LD50 in data set [2] is approximately 800 mg/kg. Also, the LD0 in the data set on mice [3] (route not given) is reported as approximately 500 mg/kg. Also, the “ratio between the effective dose and the toxicity” value in the data set with mice [4] is given as “satisfactory”.
In the case of `O=C(c1ccccc1)N1CCN(S(=O)(=O)c2cccc(C(F)(F)F)c2)CC1` [Compound 1502], in the data set with mice [1], the change in vivo at 25 mg/kg is 20%.
As for `O=C(N1CCN(S(=O)(=O)c2cccc(C(F)(F)F)c2)CC1)C12CC3CC(CC(C3)C1)C2` [Compound 1503], the change in vivo at 25 mg/kg in the data set with mice [1] is 28%.
Still for that read-out and setting: next, `COc1cc(OC)c(S(=O)(=O)N2CCN(CCO)CC2)cc1S(C)(=O)=O` [Compound 1294]: 17%; `COc1cc(OC)c(S(=O)(=O)N2CCN(Cc3ccccc3)CC2)cc1S(C)(=O)=O` [Compound 1213]: 13%.
Same read-out and setting: next, `O=S(=O)(c1cc(C(F)(F)F)cc(C(F)(F)F)c1)N1CCCN(CC(O)CO)CC1` (centres unmarked) [Compound 1488, 4-(2.3-dihydroxypropyl)1-[(3,5-ditrifluoromethyl)benzenesulfonyl]homopiperazine]: 10%.
Still for that read-out and setting: next, `O=C(c1ccco1)N1CCCN(S(=O)(=O)c2ccc(Cl)c(C(F)(F)F)c2)CC1` [Compound 1405]: 14%.
`COc1cc(OC)c(S(=O)(=O)N2CCNCC2)cc1OC` [Compound 1243] yielded an LD50 in data set [2] (iv) of 200 mg/kg. For the same molecule, in the data set on mice [3] (mice, route IV), the LD0 is listed as 200 mg/kg and the LD100 came out at 325 mg/kg. Also, the “ratio between the effective dose and the toxicity” value in the data set on mice [4] is “satisfactory”. Moreover, the change in vivo at 25 mg/kg with mice [1] turned out to be 18%.
On to `COc1ccc(Cl)cc1S(=O)(=O)N1CCN(CCO)CC1` [Compound 1263], for which the change in vivo at 25 mg/kg with mice [1] was 10%.
Turning to `O=S(=O)(c1cc(C(F)(F)F)cc(C(F)(F)F)c1)N1CCNCC1` [Compound 1400], the median lethal dose (LD50) in data set [2] is approximately 700 mg/kg. This molecule gave an LD0 in the data set on mice [3] (route not given) of approximately 250 mg/kg. Further, the “ratio between the effective dose and the toxicity” value with mice [4] is “satisfactory”.
For `O=C(c1ccco1)N1CCN(S(=O)(=O)c2cc(C(F)(F)F)cc(C(F)(F)F)c2)CC1` [Compound 1403], the change in vivo at 25 mg/kg with mice [1] was 22%.
Take `O=S(=O)(c1cccc(C(F)(F)F)c1)N1CCNCC1` [Compound 1504]: in the data set with mice [1], the change in vivo at 25 mg/kg came out at 26%.
Turning to `COc1cc(OC)c(S(=O)(=O)N2CCN(C)CC2)cc1OC` [Compound 1260], the change in vivo at 25 mg/kg in the data set with mice [1] was determined as 31%.
In data set [2] (ip), `COc1cc(OC)c(S(=O)(=O)N2CCN(CC(O)CO)CC2)cc1Cl` (centres unmarked) [Compound 1295] returned an LD50 of 820 mg/kg. In the data set with mice [3] (mice, route IP), the LD0 is 600 mg/kg and the LD100 is listed as 1 000 mg/kg. In addition, in the data set on mice [3], the “ratio between the effective dose and the toxicity” value is “satisfactory”.
